Assay results from patent publication US5177082A, “Huperzines and analogs” (priority 1990, dated 1993).
“And” between values parts separate entries of the source, which are not always exact repeats. Identical values can stand only once. “Also recorded” adds a separate entry of the source. Like-named read-outs stand apart in the source and are kept apart here.

Assays:
Mice = details: mouse, in vivo
Fetus of Pregnant Mice = details: mouse, in vivo
Description: […]. […] The latter produced various types of externally observed deformities: short tails (44/97), short and no tails (18/97), back legs reversed (13/97), open eyes (7/97), exposed brains and spina bifida (1/97), sunken noses (1/97) and cleft palates (39/40). […].

dogs = experiment: Subacute toxicity in dogs; assay type: in vivo, dog
Description: Rabbits and dogs: there were 20 rabbits divided into four groups. […] The control group was given im injections of distilled water. […] When the time arrived, the rabbits and dogs were dissected. The routine blood tests glutamic-pyruvic transaminase, zinc turbidity, urea nitrogen and creatinine were all normal. […] The stimulation of the latter was even more outstanding.

[1] = tested on: Sciatic Nerve/Tibialis Muscle Preparation; experiment: Anesthetized rabbit sciatic nerve/tibialis muscle preparation; assay type: in vivo; details: rabbits
Protocol: Anesthesized Rat and Rabbit Sciatic Nerve/Tibialis Muscle Preparation
Anesthesia was produced in rats by ip injections of 30 mg/kg of pentobarbital and in rabbits by iv injections of 1 g/kg of urethane. Electric stimulation of the periphery of the sciatic nerve (5-10 V, 0.5 ms, 1 c/10 s) caused tibialis contraction which was recorded on smoked paper.

myasthenia gravis = experiment: Clinical curative effects in 128 cases with myasthenia gravis; assay type: in vivo, human
Protocol: 128 patients with correctly diagnosed myasthenia gravis were used in the trial.
Patients affected with myasthenia gravis (MG) with typical clinical symptoms which improved after using neostigmine were the subjects for testing and verification. […] It was generally used for at least ten days and each dosage was 0.4-0.5 mg. […] The injections were all given in the morning and on the morning prior to the injections anticholinesterase drugs were discontinued. Neither the patients nor the doctors knew which drug was being injected. Later, the symptoms, the duration of the improvements, if any, which were obtained by the drugs and the side effects were recorded. Based on these factors, the relative merits of the two drugs were established.
(+) (++) and (+++) was used as the standard for the seriousness of the symptoms, (+++) was the most serious.
1. Prolapse of eyelids: the tear width of the eye after use of the drug was measured. If there was an increase of 0.2 cm above that before use of the drug, then the effect was "+", if the increase was 0.4 cm then the effect was "++" and if the increase was 0.6 cm then the effect was "+++".
2. Impairment to eyeball activity: when the eyeball was basically fixed and immovable then it was "+++", those who had reoccuring major complaints and basically normal activities were "+" and those in an intermediate state were "++".
3. Difficulties in swallowing: when swallowing was still possible but there was a feeling of difficulty or there was slowing of the speed of the intake of food then the patient was treated as "+"; when the patient could swallow but it was very slow then the patient was "++"; when the patient was basically unable to swallow the rating was "+++".
4. Systemic myasthenia: patients who were able to walk but felt very exhausted were "+"; patients who were able to stand up and walk with difficulty a short distance in the ward or corridor were "++"; and patients who could not get out of bed were "+++".

With `C/C=C1\[C@H]2C=C(C)C[C@]1(N)c1ccc(=O)[nH]c1C2` [Huperzine A, (5R, 9R, 11E)-5-amino-11-ethylidene-5,6,9,10-tetrahydro-7-methyl-5,9-methanocycloocta[b]pyridin-2(1H)-one] the “Toxic Strength” value (Mice) was 1.00, the “symptoms after single toxic dose” value (Mice) was “typical symptoms of cholinesterase inhibitor poisoning, such as whole body muscle fiber twitching, drooling, tears, increase bronchial secretions and incontinence of feces and urine” and the “number of embryo absorptions and stillborn fetuses vs control” value (Fetus of Pregnant Mice) was “markedly greater than those of the control group”. The abnormal embryos (Fetus of Pregnant Mice; ip) was “Neither of the two methods of giving the drug resulted in abnormal embryos”, the “Body length of fetus” value (Fetus of Pregnant Mice; ip, 0.019 mg/kg) was 2.2 ± 0.3 cm and the “Body weight of fetus” value (Fetus of Pregnant Mice; ip, 0.019 mg/kg) was 1.24 ± 0.22 g. For the same molecule, the Number absorbed (Fetus of Pregnant Mice; ip, 0.019 mg/kg) was 1.0 ± 1.7, the Number of fetuses (Fetus of Pregnant Mice; ip, 0.019 mg/kg) was 8 ± 3 and the number of stillbirths (Fetus of Pregnant Mice; ip, 0.019 mg/kg) was 0.22 ± 0.44. The “Body length of fetus” value (Fetus of Pregnant Mice; ip, 0.038 mg/kg) was 2.2 ± 0.3 cm, the “Body weight of fetus” value (Fetus of Pregnant Mice; ip, 0.038 mg/kg) was 1.2 ± 0.2 g and the Number absorbed (Fetus of Pregnant Mice; ip, 0.038 mg/kg) was 0.5 ± 0.8. The Number of fetuses (Fetus of Pregnant Mice; ip, 0.038 mg/kg) was 8 ± 2, the number of stillbirths (Fetus of Pregnant Mice; ip, 0.038 mg/kg) was 0.22 ± 0.44 and the “Body length of fetus” value (Fetus of Pregnant Mice; ip, 0.08 mg/kg) was 2.3 ± 0.1 cm. The “Body weight of fetus” value (Fetus of Pregnant Mice; ip, 0.08 mg/kg) was 1.2 ± 0.1 g, the Number absorbed (Fetus of Pregnant Mice; ip, 0.08 mg/kg) was 0 and the Number of fetuses (Fetus of Pregnant Mice; ip, 0.08 mg/kg) was 9 ± 2. For the same molecule, the number of stillbirths (Fetus of Pregnant Mice; ip, 0.08 mg/kg) was 0.17 ± 0.39, the “Body length of fetus” value (Fetus of Pregnant Mice; ip, 0.19 mg/kg) was 2.1 ± 0.2 cm and the “Body weight of fetus” value (Fetus of Pregnant Mice; ip, 0.19 mg/kg) was 1.0 ± 0.2 g. It also gave a Number absorbed (Fetus of Pregnant Mice; ip, 0.19 mg/kg) of 0.73 ± 1.7, a Number of fetuses (Fetus of Pregnant Mice; ip, 0.19 mg/kg) of 9 ± 4 and a number of stillbirths (Fetus of Pregnant Mice; ip, 0.19 mg/kg) of 0.13 ± 0.35. For the same molecule, the “Body length of fetus” value (Fetus of Pregnant Mice; ip, 0.38 mg/kg) was 2.0 ± 0.3 cm, the “Body weight of fetus” value (Fetus of Pregnant Mice; ip, 0.38 mg/kg) was 1.1 ± 0.3 g and the Number absorbed (Fetus of Pregnant Mice; ip, 0.38 mg/kg) was 2.1 ± 2.4. For the same molecule, the Number of fetuses (Fetus of Pregnant Mice; ip, 0.38 mg/kg) was 6 ± 4, the number of stillbirths (Fetus of Pregnant Mice; ip, 0.38 mg/kg) was 0.8 ± 1.1 and the “Body length of fetus” value (Fetus of Pregnant Mice; ip, 0.39 mg/kg) was 1.9 ± 0.1 cm. The “Body weight of fetus” value (Fetus of Pregnant Mice; ip, 0.39 mg/kg) was 0.95 ± 0.18 g, the Number absorbed (Fetus of Pregnant Mice; ip, 0.39 mg/kg) was 0.75 ± 1.0 and the Number of fetuses (Fetus of Pregnant Mice; ip, 0.39 mg/kg) was 8 ± 4. The number of stillbirths (Fetus of Pregnant Mice; ip, 0.39 mg/kg) was 0.9 ± 1.1, the “microscopic examination, heart” value (dogs; dogs) was “light fat infiltration” and the “routine blood tests, glutamic-pyruvic transaminase, zinc turbidity, urea nitrogen and creatinine” value (dogs; dogs) was “all normal”. For the same molecule, the symptoms (dogs; dogs, 0.6 mg/kg im, 180 days) was “noticeable whole body muscle fiber twitching”, the ECG (dogs; dogs, im 180 days) was “no drug induced abnormalities” and the “pathological changes of internal organs” value (dogs; dogs, six months, 90 times (MG) / 750 times (senile dementia) clinical dosage) was “no noticeable pathological changes of internal organs were observed”. For the same molecule, the abnormalities (dogs; dogs, small dosages (0.3 mg/kg im), 180 days) was “No abnormalities were observed”, the “microscopic examination, cerebral cortex” value (dogs; each dosage group of dogs) was “cerebral spongiocyte growth and myophagia” and the minimal effective dose ([1]; Oryctolagus cuniculus, iv, read-out: Lowest Effective Dosage for Enhancing Muscle Contraction) was 0.03 mg/kg. For the same molecule, the “Strength of Effect” value ([1]; galanthamine = 1.0) was 16.6, the “effect on electrically stimulated muscle contraction” value ([1]; iv (Huperzine A 30 μg/kg)) was “enhancement of the amplitude of the electrically stimulated muscle contraction” and the “Strength of Effect” value ([1]; physostigmine = 1.0) was 4. For the same molecule, the “initial effect within 15-30 minutes, %” value (myasthenia gravis; 127 cases) was 85.03%, the “initial effect within 15-30 minutes, No. of Cases” value (myasthenia gravis; 127 cases) was 108 cases and the “optimal curative effect within 45-60 minutes, %” value (myasthenia gravis; 127 cases) was 51.18%. The “optimal curative effect within 45-60 minutes, No. of Cases” value (myasthenia gravis; 127 cases) was 65 cases, the “time of maximal effect, longest” value (myasthenia gravis; 127 cases) was 240 min and the “time of maximal effect, shortest” value (myasthenia gravis; 127 cases) was 18 min. For the same molecule, the “initial effect time, average” value (myasthenia gravis; X ± SD, 127 cases) was 21.92 ± 19.56 min and 21.92 min, the “time of maximal effect, average” value (myasthenia gravis; X ± SD, 127 cases) was 50.34 ± 25.65 min and 50.34 min and the “average action time among the 40 cases” value (myasthenia gravis; cases exceeding 6 hours) was 10.42 ± 5.80 h. For the same molecule, the “longest action time among the 40 cases” value (myasthenia gravis; cases exceeding 6 hours) was 24 h, the “shortest action time among the 40 cases” value (myasthenia gravis; cases exceeding 6 hours) was 6 h and the “sustaining time of effect, shortest” value (myasthenia gravis; eye muscle type) was 0.66 h. For the same molecule, the “action time exceeded 6 hours, %” value (myasthenia gravis; human, in vivo) was 31.64%, the “action time exceeded 6 hours, cases” value (myasthenia gravis; human, in vivo) was 40 cases and the “action time reached 4-6 hours, %” value (myasthenia gravis; human, in vivo) was 34.64%. For the same molecule, the “action time reached 4-6 hours, cases” value (myasthenia gravis; human, in vivo) was 44 cases, the average action time (myasthenia gravis; human, in vivo) was 5.94 ± 4.92 h and the “cases with marked effects” value (myasthenia gravis; human, in vivo) was 71 cases. The “cases with marked effects, %” value (myasthenia gravis; human, in vivo) was 55.46%, the “initial effect time, longest” value (myasthenia gravis; im injection) was 222 min and the “physical symptom initial improvement time, longest” value (myasthenia gravis; im injection) was 3.7 h. For the same molecule, the “physical symptom initial improvement time, shortest” value (myasthenia gravis; im injection) was 10 min, the “effect on myasthenia gravis condition” value (myasthenia gravis; im injection, 0.4 mg) was “effective anticholinesterase drug for treating myasthenia gravis; also recorded: able to definitely improve the myasthenia gravis condition” and the cases rated effective (myasthenia gravis; not marked) was 56 cases. For the same molecule, the “cases rated effective, %” value (myasthenia gravis; not marked) was 43.75%, the “cases for which drug was effective” value (myasthenia gravis; of 128) was 127 cases and the “cases for which drug was effective, %” value (myasthenia gravis; of 128) was 99.21%. The “sustaining time of effect, longest” value (myasthenia gravis; systemic and eye muscle type) was 24 h.
